US5214191A, “Oxidant sensitive and insensitive aromatic esters as inhibitors of human neutrophil elastase” (Cortech, Inc., priority 1990, dated 1993)
Values after ≈ are worked out from the molar mass of the structure shown. Where two headings read alike, the source gives them in different places.

Experiments:
[1] = molecular target: alpha-chymotrypsin (α-CH) (Bos taurus, UniProt P00766); test: Specificity determination, alpha-chymotrypsin, N-succinyl-ala-ala-pro-leu-pNA substrate; type: biochemical; conditions: ratio of I50's (α-CH/HNE)
Text: (§1) Representative compounds according to the invention have been compared with a compound (Compound A) typifying the compounds described in U.S. Pat. […] The comparisons were directed towards potency (represented by the I50 's for human neutrophil elastase (HNE), porcine pancreatic elastase (PPE) and alpha-chymotrypsin (α-CH)), specificity (represented by the ratios of the I50 's (PPE/HNE and α-CH/HNE)) and the ability to inhibit the digestion of extracellular matrix by activated intact human neutrophils (expressed as a fraction of control) of the compounds listed. The following results were obtained (TABLE IV): Specificity Determination Reagents: 2) α-Chymotrypsin (α-CH) 1 mg/mL in 0.01M sodium acetate, pH 5.5. An aliquot of this stock solution is diluted 1:85 in 0.01M sodium acetate, 20% DMSO, 10 mM CaCl2, pH 5.5, 0.005% triton X-100 detergent. 4) α-CH substrate: N-succinyl-[…] 20 mM stock in DMSO. Inhibitor, substrate buffer: 0.1M tris-HCl, 0.01M CaCl2, 0.005% triton X-100, 20% DMSO, pH 7.7.

[2] = molecular target: porcine pancreatic elastase (PPE) (Sus scrofa, UniProt P00772); test: Specificity determination, porcine pancreatic elastase, N-succinyl-ala-ala-ala-pNA substrate; type: biochemical; conditions: ratio of I50's (PPE/HNE)
Text: as §1, with “1) Porcine Pancreatic Elastase (PPE)” for “2) α-Chymotrypsin (α-CH)”, “1:20” for “1:85”, “5.5. 3) PPE” for “5.5, 0.005% triton X-100 detergent. 4) α-CH”

[3] = molecular target: T1, human neutrophil elastase (HNE) (Homo sapiens, UniProt P08246); test: Potency (I50 determination) against human neutrophil elastase, N-methoxysuccinyl-ala-ala-pro-val-pNA substrate; type: biochemical; conditions: for potency relative to Compound A: in words, versus Compound A (pivaloyl group)
T1 sequence (P08246 30-267): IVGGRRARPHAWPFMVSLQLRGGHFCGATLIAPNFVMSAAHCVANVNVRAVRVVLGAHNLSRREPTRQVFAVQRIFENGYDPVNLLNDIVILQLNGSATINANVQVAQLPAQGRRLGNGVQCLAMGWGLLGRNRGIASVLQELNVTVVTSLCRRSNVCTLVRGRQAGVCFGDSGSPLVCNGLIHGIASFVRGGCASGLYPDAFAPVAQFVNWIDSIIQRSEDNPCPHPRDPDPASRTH
Experimental: Potency (I50 Determination)
A) 0.075M sodium phosphate, 20% dimethyl sulfoxide (DMSO), pH 7.7=substrateand inhibitor buffer
B) 0.075M sodium phosphate no DMSO, pH 7.7=inhibitor buffer
C) 10 mM human neutrophil elastase (HNE) substrate =N-methoxysuccinyl-ala-ala-pro-val-pNA in DMSO
D) 0.01M sodium acetate, 20% DMSO, pH 5.5=enzyme buffer (dilution)
E) 0.01M sodium acetate, pH 5.5=enzyme buffer (storage)
F) HNE (1 mg) dissolved in 1 mL of reagent E for storage at -20° C.
Make a 10 mM stock of the inhibitor in DMSO. Dilute an aliquot (10 μL) up to 1.0 mL in reagent A (100 μM). Serially dilute 100 μL of the 100 μM stock to 10.0, 1.0, 0.1, 0.01 μM in reagent A. Apply 100 μL of the diluted material to the wells of a 96-well plate. Dilute an aliquot of reagent F 1:150 in reagent D, apply 50 μL aliquots to the indicated wells and incubate for 7 minutes at room temperature.
The HNE substrate solution is made by taking 100 μL of reagent C into 500 μL of reagent A and 400 μL of reagent B. After the 7 minutes of incubation, the substrate (50 μL) is applied to each well. The HNE catalyzed reaction is then monitored spectrophotometrically at 405 nm using an ELISA plate reader machine (UVMAX, Molecular Devices) which processes the raw data with an on-board kinetics program. The enzyme activity is plotted against different inhibitor concentrations and the I50 value is determined by using a curve fitting software program. Once the "screening" I50 has been approximated, a more precise I50 value can be obtained by examination of inhibitor concentrations around this value.

PBS solubility = type: physicochemical; conditions: aqueous buffer
[4] = Table IV, human neutrophil elastase, read-out: HNE I50
[5] = Table III, series with varied R4, read-out: I50

Sequence of porcine pancreatic elastase (PPE) (P00772 27-266): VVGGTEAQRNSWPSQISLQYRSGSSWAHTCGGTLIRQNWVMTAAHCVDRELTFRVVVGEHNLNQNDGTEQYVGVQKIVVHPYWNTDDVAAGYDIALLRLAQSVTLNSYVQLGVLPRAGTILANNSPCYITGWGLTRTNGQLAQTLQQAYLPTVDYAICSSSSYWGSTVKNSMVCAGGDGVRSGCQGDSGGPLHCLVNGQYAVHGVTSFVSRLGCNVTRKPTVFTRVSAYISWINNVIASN

SMILES	α-Chymotrypsin (I50)/HNE(I50) [1]	PPE (I50)/HNE (I50) [2]	IC50 [3, 4] [nM]	solubility (PBS solubility) [µg/mL]	IC50 [3, 5] [nM]	potency relative to Compound A [3]
CCC(C(=O)Oc1ccc(S(C)(=O)=O)cc1)c1ccc(OC)cc1 (stereo not drawn) [Compound 37, 4-Methylsulfonylphenyl 2-(4'-Methoxyphenyl)butyrate]	106.2	38.6	31	–	–	improve potency relative to a compound bearing a simple pivaloyl group
CCC(C(=O)Oc1ccc(S(=O)(=O)CC(C)(C)C(=O)O)cc1)c1ccccc1 (stereo not drawn) [S(O2)CH2 C(CH3)2 CO2 H]	–	–	–	≥ 2000	141	–
CCC(C(=O)Oc1ccc(S(C)(=O)=O)cc1)c1ccccc1 (stereo not drawn) [S(O)2 CH3]	–	–	–	10 (≈ 31.4 µM)	100	–
CCC(C(=O)Oc1ccc(S(C)(=O)=O)cc1)c1ccc2cc(OC)ccc2c1 (stereo not drawn) [Compound 384]	131.8	29.1	55	–	–	improve potency relative to a compound bearing a simple pivaloyl group
CCC(C(=O)Oc1ccc(S(C)(=O)=O)cc1)c1ccccc1 (stereo not drawn) [Compound 3]	176.0	129.6	25	–	–	improve potency relative to a compound bearing a simple pivaloyl group
CC(C)(C)C(=O)Oc1ccc(S(C)(=O)=O)cc1 [Compound A, reference compound]	146.10	18.84	129	–	–	–

More lines, main results first:

α-Chymotrypsin (I50)/HNE(I50) [1]	PPE (I50)/HNE (I50) [2]	IC50 [3, 4] [nM]	solubility (PBS solubility) [µg/mL]	IC50 [3, 5] [nM]	SMILES	potency relative to Compound A [3]
–	–	–	≥ 2000	892	CCC(C(=O)Oc1ccc(SCC(C)(C)C(=O)O)cc1)c1ccccc1 (stereo not drawn) [SCH2 C(CH3)2 CO2 H]	–
–	–	–	≥ 2000	357	CCC(C(=O)Oc1ccc([S+]([O-])CC(C)(C)C(=O)O)cc1)c1ccccc1 (stereo not drawn) [S(O)CH2 C(CH3)2 CO2 H]	–
–	–	–	600 (≈ 1980 µM)	600	CCC(C(=O)Oc1ccc([S+](C)[O-])cc1)c1ccccc1 (stereo not drawn) [S(O)CH3]	–
–	–	–	10 (≈ 34.9 µM)	9000	CCC(C(=O)Oc1ccc(SC)cc1)c1ccccc1 (stereo not drawn) [SCH3]	–
